Experimental data from ChEMBL document CHEMBL6134849, “A Water-Soluble Aggregation-Induced Emission Photosensitizer with Intrinsic Antibacterial Activity as an Antiplanktonic and Antibiofilm Therapeutic Agent” (J Med Chem, 2025).
Activity calls are given as the source filed them. The rule behind the calls is not given here.

What was measured:
Staphylococcus aureus [1] = assay: Downregulation of thrS expression level in Staphylococcus aureus at 6.25 uM incubated for 1 hr in absence of light irradiation; type: functional
Staphylococcus aureus [2] = assay: Downregulation of murD expression level in Staphylococcus aureus at 6.25 uM incubated for 1 hr in absence of light irradiation; type: functional
Pseudomonas aeruginosa = assay: Antibacterial activity against Pseudomonas aeruginosa ATCC 27853 in presence of Muller-Hinton medium by broth microdilution method; type: functional
Staphylococcus aureus [3] = assay: Downregulation of lysS expression level in Staphylococcus aureus at 6.25 uM incubated for 1 hr in absence of light irradiation; type: functional
Staphylococcus aureus [4] = assay: Downregulation of ftsA expression level in Staphylococcus aureus at 6.25 uM incubated for 1 hr in absence of light irradiation; type: functional
Staphylococcus aureus [5] = assay: Selective drug uptake in Staphylococcus aureus co-cultured with human HFF-1 cells by measuring fluorescence signal at 10 uM incubated for 20 mins; type: ADME, organism-based; conditions: hff-1, 20 min
[6] = Induction of type-I ROS generation in PBS assessed as increase in hydroxyl radical by measuring increase in HPF fluorescence intensity at 10 uM irradiated with 660 nm 60 mW/cm2 light for 15 mins by HPF probe based plate reader analysis; type: functional
Staphylococcus aureus [7] = assay: Downregulation of ddl expression level in Staphylococcus aureus at 6.25 uM incubated for 1 hr in absence of light irradiation; type: functional
Staphylococcus aureus [8] = assay: Downregulation of lytH expression level in Staphylococcus aureus at 6.25 uM incubated for 1 hr in absence of light irradiation; type: functional
[9] = molecular target: T1, DNA gyrase (Staphylococcus aureus) (UniProt P0A0K8+P20831); assay: Inhibition of Staphylococcus aureus DNA gyrase supercoiling using relaxed pBR322 as substrate at 3.125 to 25 uM incubated for 30 mins in absence of light irradiation by gel based method; type: protein-complex assay; conditions: dose 3.125-25 µM
Staphylococcus aureus [10] = assay: Downregulation of alr1 expression level in Staphylococcus aureus at 6.25 uM incubated for 1 hr in absence of light irradiation; type: functional
Cell membrane [11] = assay: Induction of cell membrane damage in Staphylococcus aureus assessed as bacterial cell shrinkage at 10 uM preincubated with compound for 20 mins followed by 600 nm light irradiation for 45 min by SEM analysis; type: subcellular; conditions: time 65.0 min
[12] = Drug uptake in human HFF-1 cells co-cultured with Staphylococcus aureus by measuring fluorescence signal at 10 uM incubated for 20 mins; type: ADME, cell-based; conditions: hff-1, 20 min
[13] = Induction of type-I ROS generation in PBS assessed as increase in singlet oxygen by measuring increase in SOSG fluorescence intensity at 10 uM irradiated with 660 nm 60 mW/cm2 light for 15 mins by SOSG probe based plate reader analysis; type: functional
[14] = Induction of type-I ROS generation in PBS assessed as increase in nonspecific ROS by measuring increase in DHR123 fluorescence intensity at 10 uM irradiated with 660 nm 60 mW/cm2 light for 15 mins by DHR123 probe based plate reader analysis; type: functional
Staphylococcus aureus [15] = assay: (§1) In vivo antibacterial activity against methicillin-resistant Staphylococcus aureus ATCC 43300 infected in female BALB/c mouse skin wound infection model assessed as collagen deposition in wound at 90 uM pre-infected with bacteria for 24 hrs followed by topical compound addition for 10 mins in presence of 600 nm 60 mW/cm2 light irradiation for 15 mins and measured on day 6 by Masson trichrome staining based analysis; type: functional, organism-based; conditions: time 6.0 day
Cell membrane [16] = assay: Induction of cell membrane damage in Staphylococcus aureus at 12.5 to 25 uM incubated for 3 hrs under dark condition by scanning electron microscopic analysis; type: subcellular; conditions: dose 12.5-25 µM
Staphylococcus aureus [17] = assay: Downregulation of ssl7 protein expression in Staphylococcus aureus under light irradiation; type: functional
Staphylococcus aureus [18] = assay: Downregulation of femX expression level in Staphylococcus aureus at 6.25 uM incubated for 1 hr in absence of light irradiation; type: functional
[19] = Induction of type-II ROS generation in PBS assessed as increase in nonspecific ROS by measuring increase in DHR123 fluorescence intensity at 10 uM irradiated with 660 nm 60 mW/cm2 light for 15 mins by DHR123 probe based plate reader analysis; type: functional
Staphylococcus aureus [20] = assay: Downregulation of hisS expression level in Staphylococcus aureus at 6.25 uM incubated for 1 hr in absence of light irradiation; type: functional
[21] = Induction of type-II ROS generation in PBS assessed as increase in singlet oxygen by measuring increase in SOSG fluorescence intensity at 10 uM irradiated with 660 nm 60 mW/cm2 light for 15 mins by SOSG probe based plate reader analysis; type: functional
Cell membrane [22] = assay: Induction of cell membrane damage in Pseudomonas aeruginosa assessed as RNA leakage at 10 uM preincubated with compound for 20 mins followed by 600 nm light irradiation for 45 min by absorption based plate reader analysis; type: subcellular; conditions: time 65.0 min
[23] = molecular target: T1, DNA gyrase (Staphylococcus aureus); assay: Inhibition of Staphylococcus aureus DNA gyrase supercoiling assessed as decrease in supercoiled DNA band intensity using relaxed pBR322 as substrate at 25 uM incubated for 30 mins in absence of light irradiation by gel based method; type: protein-complex assay
Staphylococcus aureus [24] = assay: Downregulation of sle1 expression level in Staphylococcus aureus at 6.25 uM incubated for 1 hr in absence of light irradiation; type: functional
Staphylococcus aureus [25] = assay: Downregulation of glyQS expression level in Staphylococcus aureus at 6.25 uM incubated for 1 hr in absence of light irradiation; type: functional
Staphylococcus aureus [26] = assay: Downregulation of uppP expression level in Staphylococcus aureus at 6.25 uM incubated for 1 hr in absence of light irradiation; type: functional
Staphylococcus aureus [27] = assay: Downregulation of div1B expression level in Staphylococcus aureus at 6.25 uM incubated for 1 hr in absence of light irradiation; type: functional
Cell membrane [28] = assay: Induction of cell membrane damage in Staphylococcus aureus assessed as bacterial cell collapse at 10 uM preincubated with compound for 20 mins followed by 600 nm light irradiation for 45 min by SEM analysis; type: subcellular; conditions: time 65.0 min
Staphylococcus aureus [29] = assay: as §1, with “reduction in inflammatory cell infiltration” for “collagen deposition”, “H and E” for “Masson trichrome”; type: functional, organism-based; conditions: time 6.0 day
Staphylococcus aureus [30] = assay: Downregulation of murF expression level in Staphylococcus aureus at 6.25 uM incubated for 1 hr in absence of light irradiation; type: functional
Staphylococcus aureus [31] = assay: In vivo antibacterial activity against methicillin-resistant Staphylococcus aureus ATCC 43300 infected in female BALB/c mouse skin wound infection model assessed as reduction in wound area at 90 uM pre-infected with bacteria for 24 hrs followed by topical compound addition for 10 mins in presence of 600 nm 60 mW/cm2 light irradiation for 15 mins and measured on day 4; type: functional, organism-based; conditions: time 4.0 day
Staphylococcus aureus [32] = assay: Downregulation of cell wall organization related proteins in Staphylococcus aureus under light irradiation; type: functional, organism-based
Cell membrane [33] = assay: Induction of cell membrane depolarization in Staphylococcus aureus assessed as increase in fluorescence intensity in absence of light irradiation by Disc3(5) dye based fluorescence assay; type: subcellular

T1 sequence (P0A0K8 2-644 limits assumed): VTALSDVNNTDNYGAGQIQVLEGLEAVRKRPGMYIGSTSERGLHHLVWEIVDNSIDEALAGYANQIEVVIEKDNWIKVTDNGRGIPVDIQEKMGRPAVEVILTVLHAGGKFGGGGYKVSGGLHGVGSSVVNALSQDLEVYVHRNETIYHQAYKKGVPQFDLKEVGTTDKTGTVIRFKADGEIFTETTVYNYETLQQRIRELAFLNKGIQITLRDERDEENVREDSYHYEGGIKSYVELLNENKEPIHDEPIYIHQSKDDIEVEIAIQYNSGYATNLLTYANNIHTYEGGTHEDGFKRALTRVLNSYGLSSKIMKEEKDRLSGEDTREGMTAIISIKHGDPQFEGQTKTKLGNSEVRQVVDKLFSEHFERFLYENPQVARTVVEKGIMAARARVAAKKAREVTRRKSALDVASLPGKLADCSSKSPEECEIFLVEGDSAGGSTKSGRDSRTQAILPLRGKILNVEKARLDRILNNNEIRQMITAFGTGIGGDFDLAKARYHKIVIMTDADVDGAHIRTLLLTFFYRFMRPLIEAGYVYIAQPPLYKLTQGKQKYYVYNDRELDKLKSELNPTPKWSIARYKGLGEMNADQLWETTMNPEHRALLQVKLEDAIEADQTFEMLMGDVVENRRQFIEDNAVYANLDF
T1 sequence (P20831 whole entry partner): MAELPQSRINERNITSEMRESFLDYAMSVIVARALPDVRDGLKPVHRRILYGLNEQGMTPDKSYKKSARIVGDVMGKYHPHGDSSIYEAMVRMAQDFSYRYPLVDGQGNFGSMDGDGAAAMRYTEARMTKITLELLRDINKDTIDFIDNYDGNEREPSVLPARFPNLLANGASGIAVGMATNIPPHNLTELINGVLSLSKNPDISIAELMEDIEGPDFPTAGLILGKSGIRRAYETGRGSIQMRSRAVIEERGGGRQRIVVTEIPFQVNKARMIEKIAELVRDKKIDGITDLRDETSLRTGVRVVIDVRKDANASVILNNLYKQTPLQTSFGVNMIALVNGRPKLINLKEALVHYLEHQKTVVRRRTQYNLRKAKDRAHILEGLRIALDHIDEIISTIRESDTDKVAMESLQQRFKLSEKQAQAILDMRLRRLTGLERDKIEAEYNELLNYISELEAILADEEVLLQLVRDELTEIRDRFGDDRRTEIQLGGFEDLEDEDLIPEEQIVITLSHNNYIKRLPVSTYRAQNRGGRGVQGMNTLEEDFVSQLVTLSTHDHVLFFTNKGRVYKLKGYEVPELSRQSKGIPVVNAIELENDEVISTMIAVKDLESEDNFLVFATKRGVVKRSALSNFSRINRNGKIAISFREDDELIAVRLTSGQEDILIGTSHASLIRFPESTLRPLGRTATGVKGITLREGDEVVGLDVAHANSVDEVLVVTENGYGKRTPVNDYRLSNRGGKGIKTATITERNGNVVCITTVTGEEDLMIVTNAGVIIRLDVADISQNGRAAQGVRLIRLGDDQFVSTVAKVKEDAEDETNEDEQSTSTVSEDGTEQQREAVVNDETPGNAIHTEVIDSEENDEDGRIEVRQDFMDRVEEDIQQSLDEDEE

## C#CCC[n+]1c(/C=C/c2ccc(-c3ccc(N(c4ccc(OCCC[N+](C)(C)C)cc4)c4ccc(OCCC[N+](C)(C)C)cc4)cc3)s2)sc2ccccc21.[Br-].[Br-].[Br-]
Staphylococcus aureus [1]
  Activity: Active
Staphylococcus aureus [2]
  Activity: Active
Pseudomonas aeruginosa
  MIC: ≤ 100 µM
Staphylococcus aureus [3]
  Activity: Active
Staphylococcus aureus [4]
  Activity: Active
Staphylococcus aureus [5]
  Drug uptake: Active
[6]
  Activity: Active
Staphylococcus aureus [7]
  Activity: Active
Staphylococcus aureus [8]
  Activity: Active
[9]
  inhibition: Active
Staphylococcus aureus [10]
  Activity: Active
Cell membrane [11]
  Activity: Active
[12]
  Drug uptake: Not_active
[13]
  Activity: Active
[14]
  Activity: Active
Staphylococcus aureus [15]
  Activity: Active
Cell membrane [16]
  Activity: Active
Staphylococcus aureus [17]
  Activity: Active
Staphylococcus aureus [18]
  Activity: Active
[19]
  Activity: Active
Staphylococcus aureus [20]
  Activity: Active
[21]
  Activity: Active
Cell membrane [22]
  Activity: Active
[23]
  inhibition: Active
Staphylococcus aureus [24]
  Activity: Active
Staphylococcus aureus [25]
  Activity: Active
Staphylococcus aureus [26]
  Activity: Active
Staphylococcus aureus [27]
  Activity: Active
Cell membrane [28]
  Activity: Active
Staphylococcus aureus [29]
  Activity: Active
Staphylococcus aureus [30]
  Activity: Active
Staphylococcus aureus [31]
  Activity: Active
Staphylococcus aureus [32]
  Activity: Active
Cell membrane [33]
  Activity: Dose-dependent-effect
